Patent US7973012B2, “C-phenyl glycitol compound” (Taisho Pharmaceutical Co., Ltd, priority 2006, dated 2011)

Columns and labels:
human SGLT2 = target: T1, human SGLT2 (Homo sapiens, UniProt P31639); experiment: Inhibition test of sodium-dependent sugar uptake in CHO-k1 cells stably expressing human SGLT2; type: cell-based; conditions: CHO-k1 cells expressing human SGLT2; [14C]methyl α-D-glucopyranoside uptake, 37° C., an hour
T1 construct: expressed in transfected cells; host or cells: CHO-k1
T1 sequence (P31639 1-672): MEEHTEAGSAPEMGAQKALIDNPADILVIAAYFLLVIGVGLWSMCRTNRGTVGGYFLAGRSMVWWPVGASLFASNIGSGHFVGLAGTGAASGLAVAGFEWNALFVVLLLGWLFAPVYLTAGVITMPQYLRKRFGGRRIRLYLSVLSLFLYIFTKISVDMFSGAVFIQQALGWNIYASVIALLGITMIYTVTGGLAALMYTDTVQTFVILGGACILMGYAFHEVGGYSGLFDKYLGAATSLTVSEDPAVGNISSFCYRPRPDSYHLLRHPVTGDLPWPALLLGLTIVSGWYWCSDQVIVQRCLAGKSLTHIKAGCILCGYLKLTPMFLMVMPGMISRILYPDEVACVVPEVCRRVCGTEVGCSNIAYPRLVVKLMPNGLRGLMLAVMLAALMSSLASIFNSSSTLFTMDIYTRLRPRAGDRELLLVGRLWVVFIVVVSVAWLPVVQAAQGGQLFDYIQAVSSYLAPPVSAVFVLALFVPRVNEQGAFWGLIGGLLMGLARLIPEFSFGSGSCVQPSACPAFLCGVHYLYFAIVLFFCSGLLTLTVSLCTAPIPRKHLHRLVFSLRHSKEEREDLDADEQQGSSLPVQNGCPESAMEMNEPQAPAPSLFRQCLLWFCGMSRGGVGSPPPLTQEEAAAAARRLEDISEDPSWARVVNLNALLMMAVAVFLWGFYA
Protocol: (§1) An SGLT1 sequence (NM_000343) was reverse-transcripted from human small intestinal mRNA, then amplified, and then introduced into pCMV-tag5A from Stratagene Corporation. An SGLT2 sequence (NM_003041) was prepared from human nephric mRNA as with the above method, and then introduced into pcDNA3.1+hygro from Invitrogen Corporation. Each cloned sequence was confirmed to be identical with the reported sequence.
(§2) The human SGLT1 and human SGLT2 expression vectors were transfected into CHO-k1 cells by using Lipofectamine 2000 from Invitrogen Corporation. The SGLT expression cells were incubated in the presence of Geneticin (SGLT1) or Hygromycin B (SGLT2) at a 500 μg/mL concentration to select resistant strains, and specific activity of sugar uptake was obtained as an indicator by the following system.
(§3) Cells stably expressing human SGLT1 and human SGLT2 were used for the inhibition test of sodium-dependent glucose uptake.
(§4) The cells were incubated in a pretreatment buffer A (200 μL for SGLT1, and 2 mL for SGLT2) for 20 minutes. The pretreatment buffer was removed and an uptake buffer B (75 μL for SGLT1, and 200 μL for SGLT2) containing a test compound was added to conduct an uptake reaction at 37° C. for 30 minutes (SGLT1) or an hour (SGLT2). After the reaction, the cells were washed with a washing buffer C twice (200 μL for SGLT1, and 2 mL for SGLT2), and then dissolved in a 0.2 M solution of NaOH (75 μL for SGLT1, and 400 μL for SGLT2). After a liquid scintilater was added thereto and mixed sufficiently, radioactivity was measured with microBETA (SGLT1) or a liquid scintillation counter from Beckman Coulter, Inc (SGLT2). As a control group, an uptake buffer containing no test compound was prepared. In addition, as the basic uptake buffer, an uptake buffer B containing choline chloride instead of NaCl was prepared. • A pretreatment buffer A: 140 mM choline chloride, 2 mM KCl, 1 mM CaCl2, 1 mM MgCl2, 10 mM HEPES/5 mM Tris, pH 7.4. • An uptake buffer B: 1 mM of methyl α-D-glucopyranoside containing [^14C]methyl α-D-glucopyranoside, 140 mM NaCl, 2 mM KCl, 1 mM CaCl2, 1 mM MgCl2, 10 mM HEPES/5 mM Tris, pH 7.4. • A washing buffer C: 10 mM methyl α-D-glucopyranoside, 140 mM choline chloride, 2 mM KCl, 1 mM CaCl2, 1 mM MgCl2, 10 mM HEPES/5 mM Tris, pH 7.4.
(§5) In order to obtain IC50 values, test compounds having adequate 6 concentrations were used and the test compound concentrations (IC50 values) at which sugar uptake is inhibited by 50% in comparison with the amount of sugar uptake (100%) of the control group were calculated.
(§6) In addition, the sugar uptake inhibition rates at 100 nM concentration of the test compound in comparison with the control group are shown in Table 7.

human SGLT1 = target: T2, human SGLT1 (Homo sapiens, UniProt P13866); experiment: Inhibition test of sodium-dependent sugar uptake in CHO-k1 cells stably expressing human SGLT1; type: cell-based; conditions: CHO-k1 cells expressing human SGLT1; [14C]methyl α-D-glucopyranoside uptake, 37° C., 30 minutes
T2 construct: expressed in transfected cells; host or cells: CHO-k1
T2 sequence (P13866 1-664): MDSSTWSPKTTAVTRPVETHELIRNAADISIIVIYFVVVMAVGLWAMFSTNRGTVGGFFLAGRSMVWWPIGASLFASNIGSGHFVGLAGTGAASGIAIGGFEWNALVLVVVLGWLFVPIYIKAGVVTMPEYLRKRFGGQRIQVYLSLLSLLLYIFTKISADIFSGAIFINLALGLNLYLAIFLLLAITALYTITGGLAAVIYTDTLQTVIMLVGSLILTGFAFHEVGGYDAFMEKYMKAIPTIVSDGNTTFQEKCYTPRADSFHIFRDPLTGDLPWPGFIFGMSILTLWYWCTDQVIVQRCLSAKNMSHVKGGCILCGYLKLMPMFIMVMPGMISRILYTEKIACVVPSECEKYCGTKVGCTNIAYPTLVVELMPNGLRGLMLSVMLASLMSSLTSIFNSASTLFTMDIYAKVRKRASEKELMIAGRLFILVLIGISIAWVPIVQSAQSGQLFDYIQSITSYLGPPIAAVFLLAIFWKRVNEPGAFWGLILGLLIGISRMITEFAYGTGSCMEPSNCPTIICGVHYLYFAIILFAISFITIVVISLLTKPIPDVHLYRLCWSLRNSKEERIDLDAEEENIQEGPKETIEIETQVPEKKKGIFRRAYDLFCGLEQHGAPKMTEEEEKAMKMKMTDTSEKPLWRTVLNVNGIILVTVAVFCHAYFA
Protocol: as §1, §2, §3, §4, §5, §6

[1] = tested on: Streptozotocin diabetic model rats; experiment: Oral glucose tolerance test in streptozotocin diabetic model rats; type: in vivo; conditions: Rattus norvegicus; STZ diabetic SD/IGS rats; 1 mg/kg oral, glucose 2 g/kg oral 5 minutes later; decrease rate of ΔAUC 0-1 h vs control group; read-out: STZ rats-OGTT(2 g/kg) % inhibition ΔAUC0-1 h(mgh/dL) @1 mg/kg
Protocol: 7-week-old SD/IGS rats (from CHARLES RIVER LABORATORIES JAPAN, INC., male) were fasted for about 16 hours. Then to these rats under etherization were administered 50 mg/kg of streptozotocin (STZ) via the tail vein to prepare diabetic model rats. Similarly, to rats under etherization were administered 1 mL/kg physiological saline containing 1.25 mmol/L of citric acid via tail veins to prepare normal control rats. One week (8 weeks old) after administration of STZ or 1.25 mmol/L citric acid physiological saline, the rats were subjected to oral glucose tolerance test.
After the rats were fasted for about 16 hours, the medicament (1 mg/kg) suspended in a 0.5% carboxymethyl cellulose (CMC) aqueous solution was orally administered to a medicament treated group, and only a 0.5% aqueous solution of CMC was orally administered to a control group. At 5 minutes after the administration, a glucose solution (2 g/kg) was orally administered to each rat, and blood was collected at 5 points in total: before the administration (0 time), after 0.25, 0.5, 1 and 2 hours after the oral administration.
The blood was collected from the orbital sinus venosus of each rat under etherization with a heparin-coated blood collection tube and centrifuged, and then blood plasma was separated. The concentration of glucose in the blood plasma was determined with Glucose CII Test Wako from Wako Pure Chemical Industries, Ltd. As for the intensity of inhibitory effect on elevation of blood glucose level, area under the blood glucose level curve (AUC) was calculated by the trapezoidal rule based on the blood glucose levels of the medicament treated group from 0 time to 1 hour time. And a basal value is subtracted from AUC to describe the intensity as area under the blood glucose level increment (ΔAUC) and describe the intensity as a decrease rate from the ΔAUC of the control group.

Structure (SMILES) | IC50 (human SGLT2) | IC50 (human SGLT1) | inhibition in vivo at 1 mg/kg [1]
Cc1cc(O)c([C@@H]2O[C@H](CO)[C@@H](O)[C@H](O)[C@H]2O)cc1Cc1ccc(CCCC(=O)NC(C)(C)C(N)=O)cc1 [Compound 4, (1S)-1-[5-[4-[4-[(2-amino-1,1-dimethyl-2-oxoethyl)amino]-4-oxobutyl]benzyl]-2-hydroxy-4-methylphenyl]-1,5-anhydro-D-glucitol] | 31 nM | 51 nM | 51%
Cc1cc(O)c([C@@H]2O[C@H](CO)[C@@H](O)[C@H](O)[C@H]2O)cc1Cc1ccc(CCCNC(=O)NC(CO)(CO)CO)cc1 [Compound 9, (1S)-1,5-anhydro-1-[5-[4-[3-[[[2-hydroxy-1,1-bis(hydroxymethyl)ethyl]aminocarbonyl]amino]propyl]benzyl]-2-hydroxy-4-methylphenyl]-D-glucitol] | 29 nM | 175 nM | 50.1%
Cc1cc(O)c([C@@H]2O[C@H](CO)[C@@H](O)[C@H](O)[C@H]2O)cc1Cc1ccc(CCNC(=O)NC(C)(C)CO)cc1 [Compound 10, (1S)-1,5-anhydro-1-[5-[4-[2-[[(2-hydroxy-1,1-dimethylethyl)aminocarbonyl]amino]ethyl]benzyl]-2-hydroxy-4-methylphenyl]-D-glucitol] | 23 nM | 51 nM | 67.8%
Cc1cc(O)c([C@@H]2O[C@H](CO)[C@@H](O)[C@H](O)[C@H]2O)cc1Cc1ccc(CCNC(=O)NC(CO)(CO)CO)cc1 [Compound 11, (1S)-1,5-anhydro-1-[5-[4-[2-[[[2-hydroxy-1,1-bis(hydroxymethyl)ethyl]aminocarbonyl]amino]ethyl]benzyl]-2-hydroxy-4-methylphenyl]-D-glucitol] | 34 nM | 59 nM | 69.3%

Further lines, with some results ahead:

IC50 (human SGLT2) | IC50 (human SGLT1) | Structure (SMILES) | inhibition in vivo at 1 mg/kg [1]
29 nM | 65 nM | Cc1cc(O)c([C@@H]2O[C@H](CO)[C@@H](O)[C@H](O)[C@H]2O)cc1Cc1ccc(CCCNC(=O)NC(C)(C)CO)cc1 [Compound 8, (1S)-1,5-anhydro-1-[5-[4-[3-[[(2-hydroxy-1,1-dimethylethyl)aminocarbonyl]amino]propyl]benzyl]-2-hydroxy-4-methylphenyl]-D-glucitol] | 45.1%
18 nM | 32 nM | Cc1cc(O)c([C@@H]2O[C@H](CO)[C@@H](O)[C@H](O)[C@H]2O)cc1Cc1ccc(CCCC(=O)NC(C)(CO)CO)cc1 [Compound 2, (1S)-1,5-anhydro-1-[2-hydroxy-5-[4-[4-[[2-hydroxy-1-(hydroxymethyl)-1-methylethyl]amino]-4-oxobutyl]benzyl]-4-methylphenyl]-D-glucitol] | 51.6%
65 nM | 35 nM | Cc1cc(O)c([C@@H]2O[C@H](CO)[C@@H](O)[C@H](O)[C@H]2O)cc1Cc1ccc(CCCC(=O)NC(CO)(CO)CO)cc1 [Compound 3, (1S)-1,5-anhydro-1-[2-hydroxy-5-[4-[4-[[2-hydroxy-1,1-bis(hydroxymethyl)ethyl]amino]-4-oxobutyl]benzyl]-4-methylphenyl]-D-glucitol] | 63.9%
48 nM | 113 nM | Cc1cc(O)c([C@@H]2O[C@H](CO)[C@@H](O)[C@H](O)[C@H]2O)cc1Cc1ccc(CCNC(=O)NC(C)(C)C(=O)N2CCN(C)CC2)cc1 [Compound 12, (1S)-1,5-anhydro-1-[5-[4-[2-[[[1-[1-(4-methylpiperazin-1-yl)carbonyl]-1-(methyl)ethyl]aminocarbonyl]amino]ethyl]benzyl]-2-hydroxy-4-methylphenyl]-D-glucitol] | 48.8%
17 nM | 11 nM | Cc1cc(O)c([C@@H]2O[C@H](CO)[C@@H](O)[C@H](O)[C@H]2O)cc1Cc1ccc(CCCC(=O)NC(C)(C)CO)cc1 [Compound 1, (1S)-1,5-anhydro-1-[2-hydroxy-5-[4-[4-[(2-hydroxy-1,1-dimethylethyl)amino]-4-oxobutyl]benzyl]-4-methylphenyl]-D-glucitol] | 41.7%
